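The compound was tested at five concentrations on cells cultured in 96-well plates, with a 48-hour exposure period. Abbreviation: GI50, concentration required for 50% inhibition of growth.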 The source made the active and inactive calls. Rule as the data show it: active = GI50 up to about 1.1 µM and inactive = higher.
Experiments:
Test in all cases: inhibition of tumour cell growth, NCI panel, 48 h
OVCAR-3 = test system: OVCAR-3
NCI-H460 = test system: NCI-H460
HCT-116 = test system: HCT-116
U-251 = test system: U-251
OVCAR-5 = test system: OVCAR-5
UO-31 = test system: UO-31
SF-268 = test system: SF-268
NCI-H23 = test system: NCI-H23
COLO 205 = test system: COLO 205
M19-MEL = test system: M19-MEL
KM12 = test system: KM12
MOLT-4 = test system: MOLT-4
IGROV-1 = test system: IGROV-1
RXF 393 = test system: RXF 393
SNB-78 = test system: SNB-78
SK-MEL-2 = test system: SK-MEL-2
SK-MEL-5 = test system: SK-MEL-5
DU-145 = test system: DU-145

Measured: GI50

CC1=C/C(=C2/N=C(N(C)C)SS2)C(C)=N1.[O-][Cl+3]([O-])([O-])O
inactive: OVCAR-3 > 100 µM | NCI-H460 > 100 µM | HCT-116 > 100 µM | U-251 > 100 µM | OVCAR-5 > 100 µM | UO-31 > 100 µM | SF-268 > 100 µM | NCI-H23 6.47 µM | COLO 205 3.07 µM | M19-MEL 10.6 µM | KM12 > 100 µM | MOLT-4 > 100 µM | IGROV-1 > 100 µM | RXF 393 > 100 µM | SNB-78 > 100 µM

CC(=O)NNc1nc(C)c(C(=O)/C=C/c2ccc(NC(C)=O)cc2)s1
inactive: OVCAR-3 > 100 µM | NCI-H460 > 100 µM | U-251 > 100 µM | OVCAR-5 > 100 µM | UO-31 > 100 µM | SF-268 > 100 µM | SK-MEL-2 > 100 µM | NCI-H23 > 100 µM | SK-MEL-5 > 100 µM | COLO 205 > 100 µM | M19-MEL > 100 µM | KM12 > 100 µM | MOLT-4 > 100 µM | IGROV-1 > 100 µM | RXF 393 > 100 µM | SNB-78 > 100 µM

CCOc1ccccc1NC(=O)CC(C(=O)OC)C(=O)C(=O)OC (stereo not given)
inactive: OVCAR-3 > 100 µM | NCI-H460 > 100 µM | HCT-116 > 100 µM | U-251 > 100 µM | OVCAR-5 > 100 µM | UO-31 > 100 µM | SF-268 > 100 µM | SK-MEL-2 > 100 µM | NCI-H23 > 100 µM | SK-MEL-5 > 100 µM | COLO 205 > 100 µM | M19-MEL > 100 µM | KM12 > 100 µM | MOLT-4 > 100 µM | IGROV-1 > 100 µM | RXF 393 > 100 µM | SNB-78 > 100 µM

O=S(=O)(SCc1ccccc1)C(c1ccccc1)c1ccccc1
inactive: OVCAR-3 29.1 µM | NCI-H460 37 µM | HCT-116 33.4 µM | U-251 32.9 µM | OVCAR-5 > 100 µM | UO-31 64.6 µM | SF-268 57.1 µM | SK-MEL-2 39.1 µM | NCI-H23 26.5 µM | SK-MEL-5 22.5 µM | COLO 205 19.6 µM | M19-MEL 32.4 µM | KM12 34.1 µM | MOLT-4 3.7 µM | IGROV-1 32.7 µM | RXF 393 21.9 µM | SNB-78 30.5 µM

CCN(CC)CCC(=O)/C=C/c1ccc(C)cc1
inactive: OVCAR-3 16.7 µM | NCI-H460 15.7 µM | HCT-116 13.4 µM | U-251 10.2 µM | OVCAR-5 18.6 µM | UO-31 16.2 µM | SF-268 15.8 µM | NCI-H23 17.1 µM | SK-MEL-5 16.6 µM | COLO 205 4.72 µM | M19-MEL 12.8 µM | KM12 3.18 µM | MOLT-4 11.7 µM | IGROV-1 15.3 µM | RXF 393 15.3 µM | SNB-78 23.5 µM

C/C(CC(=O)NCCc1ccccc1)=N\NC(=O)C[n+]1ccccc1
inactive: OVCAR-3 > 100 µM | NCI-H460 > 100 µM | HCT-116 > 100 µM | U-251 > 100 µM | OVCAR-5 > 100 µM | UO-31 > 100 µM | SF-268 > 100 µM | SK-MEL-2 > 100 µM | NCI-H23 > 100 µM | SK-MEL-5 > 100 µM | COLO 205 > 100 µM | M19-MEL > 100 µM | KM12 > 100 µM | MOLT-4 > 100 µM | IGROV-1 > 100 µM | RXF 393 > 100 µM | SNB-78 > 100 µM

COC1C=C(Nc2cccc(Cl)c2)C(=O)C1 (stereo not given)
inactive: OVCAR-3 65.3 µM | NCI-H460 44.4 µM | HCT-116 40.2 µM | U-251 32.3 µM | OVCAR-5 47.4 µM | UO-31 41.2 µM | SF-268 45.8 µM | SK-MEL-2 71 µM | NCI-H23 41.5 µM | SK-MEL-5 83 µM | COLO 205 10.4 µM | M19-MEL > 100 µM | KM12 71 µM | MOLT-4 49.3 µM | IGROV-1 > 100 µM | RXF 393 23.4 µM | SNB-78 48.4 µM

CCOC(=O)NC1C2CC(=O)C(O2)C1OCc1ccccc1 (stereo not given)
inactive: OVCAR-3 > 100 µM | NCI-H460 > 100 µM | U-251 > 100 µM | OVCAR-5 > 100 µM | UO-31 78 µM | SF-268 > 100 µM | SK-MEL-2 > 100 µM | NCI-H23 > 100 µM | SK-MEL-5 > 100 µM | COLO 205 > 100 µM | M19-MEL > 100 µM | KM12 > 100 µM | MOLT-4 > 100 µM | IGROV-1 > 100 µM | RXF 393 > 100 µM | SNB-78 > 100 µM

COc1ccc(N2C(=O)C3c4[nH]c5ccccc5c4C4CCCCC4C3C2=O)cc1 (stereo not given)
inactive: OVCAR-3 > 100 µM | NCI-H460 19.5 µM | HCT-116 7.11 µM | U-251 15.6 µM | OVCAR-5 > 100 µM | UO-31 26.4 µM | SF-268 8.61 µM | SK-MEL-2 16.6 µM | NCI-H23 25.8 µM | SK-MEL-5 21.7 µM | COLO 205 3.94 µM | M19-MEL 28.8 µM | KM12 38.5 µM | MOLT-4 16.1 µM | IGROV-1 24.7 µM | RXF 393 20.8 µM | SNB-78 2.29 µM

CC(=O)Nc1ccc(/C=c2\sc3nnc(CCC(=O)Nc4ccccc4Cl)n3c2=O)cc1
inactive: OVCAR-3 21.6 µM | NCI-H460 > 10 µM | HCT-116 37.7 µM | U-251 17.9 µM | OVCAR-5 > 100 µM | UO-31 > 100 µM | SF-268 26.4 µM | SK-MEL-2 31.9 µM | NCI-H23 46.3 µM | SK-MEL-5 25 µM | M19-MEL 37.4 µM | KM12 20.9 µM | MOLT-4 19.4 µM | IGROV-1 > 100 µM | RXF 393 27.3 µM | SNB-78 47.3 µM

COc1cc2c(cc1OC)C1[C@@H](c3ccccc3)OCN1CC2 (stereo not given in full)
inactive: OVCAR-3 > 100 µM | NCI-H460 > 100 µM | HCT-116 > 82.2 µM | U-251 > 100 µM | OVCAR-5 > 100 µM | UO-31 > 100 µM | SF-268 > 100 µM | SK-MEL-2 > 100 µM | NCI-H23 > 100 µM | SK-MEL-5 > 96.4 µM | COLO 205 91.2 µM | M19-MEL > 100 µM | KM12 > 100 µM | MOLT-4 > 100 µM | IGROV-1 > 100 µM | RXF 393 > 100 µM | SNB-78 > 73.1 µM

C=CCOCCCC(=O)C(=[N+]=[N-])C(=O)OC
inactive: OVCAR-3 > 100 µM | NCI-H460 > 100 µM | HCT-116 > 100 µM | U-251 > 100 µM | OVCAR-5 > 100 µM | UO-31 > 100 µM | SF-268 > 100 µM | SK-MEL-2 > 100 µM | NCI-H23 > 100 µM | SK-MEL-5 > 100 µM | COLO 205 > 100 µM | DU-145 > 100 µM | M19-MEL > 100 µM | KM12 > 100 µM | MOLT-4 > 100 µM | IGROV-1 > 100 µM | RXF 393 > 100 µM | SNB-78 > 100 µM

COc1ccc2nc(C(=O)c3ccccc3)c(C)cc2c1
inactive: OVCAR-3 10.3 µM | NCI-H460 7.24 µM | HCT-116 4.63 µM | U-251 3.5 µM | OVCAR-5 33.9 µM | UO-31 12.9 µM | SF-268 6.76 µM | SK-MEL-2 6.27 µM | NCI-H23 3.71 µM | SK-MEL-5 3.15 µM | COLO 205 5.93 µM | M19-MEL 7.82 µM | KM12 6.58 µM | MOLT-4 5.02 µM | IGROV-1 > 29.2 µM | RXF 393 2.7 µM | SNB-78 13.2 µM

O=C(CC/C(CC(=O)c1ccc(Br)cc1)=N\O)Nc1ccc(Cl)c(Cl)c1
inactive: OVCAR-3 57.5 µM | NCI-H460 > 100 µM | HCT-116 > 100 µM | U-251 > 100 µM | OVCAR-5 54.6 µM | UO-31 > 100 µM | SF-268 > 100 µM | SK-MEL-2 > 100 µM | NCI-H23 > 100 µM | SK-MEL-5 29.8 µM | COLO 205 37.8 µM | M19-MEL 64.7 µM | KM12 67.8 µM | MOLT-4 52.7 µM | IGROV-1 60.7 µM | RXF 393 29.2 µM | SNB-78 > 100 µM

COc1ccc(/C(Cl)=C(/c2ccc(O)cc2)c2ccc(OCCN(C)C)cc2)cc1
inactive: OVCAR-3 15.3 µM | NCI-H460 12.7 µM | U-251 11.2 µM | OVCAR-5 13.3 µM | UO-31 7.03 µM | SF-268 11.8 µM | SK-MEL-2 10.4 µM | NCI-H23 15.6 µM | SK-MEL-5 4.28 µM | COLO 205 9.86 µM | M19-MEL 3.72 µM | KM12 9.14 µM | IGROV-1 16.4 µM | RXF 393 5.12 µM | SNB-78 14.5 µM

O=C(O)CC(O)(c1ccccc1C(=O)O)c1cccc2ccccc12 (stereo not given)
inactive: OVCAR-3 > 100 µM | NCI-H460 > 100 µM | HCT-116 > 100 µM | U-251 > 100 µM | OVCAR-5 > 100 µM | UO-31 > 100 µM | SF-268 > 100 µM | SK-MEL-2 > 100 µM | NCI-H23 > 100 µM | SK-MEL-5 > 100 µM | COLO 205 > 100 µM | M19-MEL > 100 µM | KM12 > 100 µM | MOLT-4 > 100 µM | IGROV-1 > 100 µM | RXF 393 > 100 µM | SNB-78 > 100 µM

N#CC(C(=O)CCC(=O)Nc1ccc(Cl)c(Cl)c1)c1ccccc1 (stereo not given)
inactive: OVCAR-3 > 100 µM | HCT-116 > 100 µM | U-251 > 100 µM | OVCAR-5 > 100 µM | UO-31 > 100 µM | SF-268 > 100 µM | SK-MEL-2 > 100 µM | NCI-H23 > 100 µM | SK-MEL-5 > 100 µM | M19-MEL > 100 µM | KM12 > 100 µM | MOLT-4 > 100 µM | IGROV-1 > 100 µM | RXF 393 > 100 µM | SNB-78 > 100 µM
